For assay [1], the system named is Bacillus subtilis No. 10107. Type of assay: cell-based. The following applies: No. 10107, pH 7. The protocol:
(§1) The antibacterial activity was determined by the agar dilution method using a culture medium (pH 7.0) containing 3 g/l bactotrypton (product of Difco Co.), 1 g/l meat extract, 1 g/l glucose and 16 g/l agar.

In assay [2] the test system is Pseudomonas aeruginosa Bin H No. 1. Type of assay: cell-based. The following applies: Bin H No. 1, pH 7. The protocol: as §1
Assay [3] has as its system Enterococcus faecium ATCC10541. Type of assay: cell-based. As to conditions: ATCC10541, pH 7. The protocol: as §1
Assay [4] has as its system Proteus vulgaris ATCC6897. Type of assay: cell-based. As to conditions: ATCC6897, pH 7. The protocol: as §1
In assay [5] the target is T1, PLC-γ1 (Bos taurus, UniProt P08487).
T1 construct: A sample (PLC-γ1) was prepared from bovine thymus according to the method of Y. Homma et al; from tissue; host or cells: bovine thymus
T1 sequence (P08487 1-1291): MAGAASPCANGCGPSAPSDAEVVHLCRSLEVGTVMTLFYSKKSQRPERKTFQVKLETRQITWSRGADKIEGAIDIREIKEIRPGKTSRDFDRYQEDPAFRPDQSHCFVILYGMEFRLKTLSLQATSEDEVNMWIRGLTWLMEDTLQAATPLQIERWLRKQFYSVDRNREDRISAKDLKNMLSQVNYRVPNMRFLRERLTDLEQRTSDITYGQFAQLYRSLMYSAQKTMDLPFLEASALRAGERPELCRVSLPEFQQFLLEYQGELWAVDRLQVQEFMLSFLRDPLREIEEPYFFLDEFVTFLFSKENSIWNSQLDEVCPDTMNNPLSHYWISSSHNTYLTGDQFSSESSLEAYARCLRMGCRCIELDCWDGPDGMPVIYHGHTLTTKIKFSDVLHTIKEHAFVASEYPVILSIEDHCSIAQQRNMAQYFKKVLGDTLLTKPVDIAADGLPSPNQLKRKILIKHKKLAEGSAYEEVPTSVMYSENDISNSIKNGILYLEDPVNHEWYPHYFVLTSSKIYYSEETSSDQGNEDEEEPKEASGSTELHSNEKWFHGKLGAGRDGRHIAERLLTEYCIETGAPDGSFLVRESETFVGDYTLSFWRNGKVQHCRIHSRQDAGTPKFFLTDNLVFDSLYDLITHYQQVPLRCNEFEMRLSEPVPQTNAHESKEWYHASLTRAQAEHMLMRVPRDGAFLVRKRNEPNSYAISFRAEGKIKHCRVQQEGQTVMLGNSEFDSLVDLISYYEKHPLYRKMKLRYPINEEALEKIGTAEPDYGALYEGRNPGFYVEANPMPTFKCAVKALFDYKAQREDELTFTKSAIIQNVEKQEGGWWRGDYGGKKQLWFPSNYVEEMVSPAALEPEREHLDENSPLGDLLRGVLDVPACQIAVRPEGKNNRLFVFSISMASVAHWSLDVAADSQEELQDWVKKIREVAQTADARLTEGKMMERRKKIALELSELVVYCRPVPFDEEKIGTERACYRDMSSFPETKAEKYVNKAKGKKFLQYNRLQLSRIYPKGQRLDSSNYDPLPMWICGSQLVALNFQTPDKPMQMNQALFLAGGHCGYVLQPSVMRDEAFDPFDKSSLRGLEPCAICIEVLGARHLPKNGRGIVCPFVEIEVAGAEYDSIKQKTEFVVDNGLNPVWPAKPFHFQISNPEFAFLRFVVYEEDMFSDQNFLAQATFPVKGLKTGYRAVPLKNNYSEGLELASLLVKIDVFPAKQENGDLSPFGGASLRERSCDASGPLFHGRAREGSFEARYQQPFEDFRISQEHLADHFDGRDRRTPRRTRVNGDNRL
In words: PLC-inhibiting activity (release of [3H]inositol phosphate from [3H]PIP2). Type of assay: biochemical, bovine. As to conditions: PI-PLC-γ1, 37° C., 10 minutes, read-out: Inhibition rate (%). The protocol:
A sample (PLC-γ1) was prepared from bovine thymus according to the method of Y. Homma et al. described in Biochemical Journal [(Biochem. J.), 269, 13 (1990)]. A solution having the composition listed in Table 1 below was prepared in advance on the ice and the reaction was begun with heating to 37° C. After incubation for 10 minutes, 2 ml of a solution mixture of chloroform/methanol (2:[…]) was added thereto to stop the reaction. The resulting inositol phosphate was extracted with 0.5 ml of 1N hydrochloric acid. Two-phase distribution was carried out by centrifugation (2000×g, 3 minutes), and the amount of ^3 H contained in 0.7 ml of the supernatant was measured with scintillation counter. […] The obtained value of specific radioactivity was defined as "A", the value of specific radioactivity obtained when an equivalent amount of water was added instead of the aqueous solution of the test peptide was defined as "B", the value of specific radioactivity obtained when an equivalent amount of water was added instead of the sample and the aqueous solution of the test peptide was defined as "C", and the inhibition rate (X) was determined according to the following equation. X(%)=[…]

In assay [6] the test system is Shigella sonnei ATCC9290. Briefly: Antibacterial activity, agar dilution method. Type of assay: cell-based. As to conditions: medium pH 7.0. Here is the method: as §1
The subject of assay [7] is Salmonella typhi ATCC9902. Type of assay: cell-based. The following applies: agar dilution, medium pH 7.0. Here is the method:
as §1
In general terms: In agar dilution the substance is mixed into plates at graded concentrations.

In assay [8] the test system is KMS-4 cells. Briefly: Cell proliferation-inhibiting activity (BrdU incorporation, Amersham Cell Proliferation Detection Kit). As to conditions: 17 hours with peptide, BrdU-stained cells. Type of assay: cell-based. The protocol: The following procedure was carried out with an Amersham Cell Proliferation Detection Kit. First, cells [KMS-4; M. Nanba et al., International Journal of Cancer, 32, 697 (1983)] were suspended in a DMEM culture medium (product of Nissui Seiyaku) containing 10% fetal calf serum to a concentration of 1-2×10^4 cells/ml, and 1 ml of the above-mentioned cell suspension was put into each well of a 24-well plate (product of Corning Co.). The cells were cultured for 2 days in a CO2 incubator (37° C., 5% CO2). Next, the culture medium was exchanged with a DMEM medium containing 10% fetal calf serum, and then the test peptide was added thereto and culturing was carried out for 17 hours. The culture medium was again exchanged with a serum-free DMEM medium, 0.5 ml of a solution of the reagents labelled 5-bromo-2'-deoxyuridine (BrdU) and 5-fluoro-2'-deoxyuridine (FdU) [10:1] diluted 1000-fold with the same medium was added to each well, and cultured for 2 hours. The culture medium was removed, and the cells were immobilized with an acetic acid/ethanol solution. The immobilized cells were stained according to the method for the Amersham Cell Proliferation Kit, and then further stained with a 1% Giemsa solution (product of Merck Co.). The number of cells incorporating BrdU and the total cell count within 1 field of vision of the microscope (approximately 200 cells) were determined, and the proportion (%) of stained cells per field of vision was calculated. Furthermore, the same procedure was repeated 10 times, and the average value thereof was defined as the cell proliferation activity (%). The cell proliferation-inhibiting activity was calculated in the following manner. The proliferation activity without addition of peptide was defined as "A", the proliferation activity with addition of the test peptide was defined as "B", and the cell proliferation inhibition rate (X) was determined according to the following equation. X (%)=[…]

Values after ≈ are worked out from the molar mass of the structure shown. Peptide text beside a SMILES is read from it. * marks the point of attachment. Butanoyl(2-Et) = CCC(CC)C(=O)*; Isobutyryl = CC(C)C(=O)*; Hexanoyl = CCCCCC(=O)*

On to “Ac-YRKMRLRY-NH2 [Compound (I-10), CH3 CO-Tyr-Arg-Lys-Met -Arg-Leu-Arg-Tyr-NH2]”, for which the “MIC” value in assay [1], in assay [2], in assay [3] and in assay [4] was 83 µg/mL in each case. Also, the inhibition (in general, the relative decrease from the control value, in per cent) at 160 µM (stock) in assay [5] (Concentration 160 μM (aqueous solution of test peptide)) was determined as 26%.

Consider `CCCCCC(=O)N[C@@H](CC(C)C)C(=O)N[C@@H](Cc1ccc(O)cc1)C(=O)N[C@@H](CCCNC(=N)N)C(=O)N[C@@H](CCCCN)C(=O)N[C@@H](CCSC)C(=O)N[C@@H](CCCNC(=N)N)C(=O)N[C@@H](CC(C)C)C(=O)N[C@@H](CCCNC(=N)N)C(=O)N[C@@H](Cc1ccc(O)cc1)C(=O)N1CCC[C@H]1C(=O)N[C@H](C(N)=O)C(C)C` [(I-27), CH3 (CH2)4 CO-Leu-Tyr-Arg-Lys-Met-Arg-Leu-Arg-Tyr-Pro-Val-NH2] (Hexanoyl-LYRKMRLRYPV-NH2), for which the MIC (as a rule, the lowest concentration that inhibits growth of the organism) turned out to be 83 µg/mL (≈ 52.1 µM) in assay [6]; 83 µg/mL (≈ 52.1 µM) in assay [1]; 83 µg/mL (≈ 52.1 µM) in assay [7]; 42 µg/mL (≈ 26.4 µM) in assay [2]; 83 µg/mL (≈ 52.1 µM) in assay [3]; 83 µg/mL (≈ 52.1 µM) in assay [4]. In assay [5] (Concentration 130 μM (aqueous solution of test peptide)), the inhibition at 130 µM (stock) was found to be 35%. Moreover, in assay [8] (Concentration 31 μM), the “Cell proliferation inhibition rate (%)” value is reported as 28%.

In the case of `CSCC[C@H](NC(=O)[C@H](CCCCN)NC(=O)[C@H](CCCNC(=N)N)NC(=O)[C@H](Cc1ccc(O)cc1)NC(=O)[C@H](CC(C)C)NC(=O)C(C)C)C(=O)N[C@@H](CCCNC(=N)N)C(=O)N[C@@H](CC(C)C)C(=O)N[C@@H](CCCNC(=N)N)C(=O)N[C@@H](Cc1ccc(O)cc1)C(=O)N1CCC[C@H]1C(=O)N[C@H](C(N)=O)C(C)C` [(I-19), (CH3)2 CHCO-Leu-Tyr-Arg-Lys-Met-Arg-Leu-Arg-Tyr-Pro-Val-NH2] (Isobutyryl-LYRKMRLRYPV-NH2), the “MIC” value in assay [2] and in assay [4] was 83 µg/mL (≈ 53.1 µM) each time. Also, the inhibition at 640 µM (stock) in assay [5] (Concentration 640 μM (aqueous solution of test peptide)) came out at 67%. Also, the “Cell proliferation inhibition rate (%)” value in assay [8] (Concentration 32 μM) was found to be 59%.

As to `CCC(CC)C(=O)N[C@@H](CC(C)C)C(=O)N[C@@H](Cc1ccc(O)cc1)C(=O)N[C@@H](CCCNC(=N)N)C(=O)N[C@@H](CCCCN)C(=O)N[C@@H](CCSC)C(=O)N[C@@H](CCCNC(=N)N)C(=O)N[C@@H](CC(C)C)C(=O)N[C@@H](CCCNC(=N)N)C(=O)N[C@@H](Cc1ccc(O)cc1)C(=O)N1CCC[C@H]1C(=O)N[C@H](C(N)=O)C(C)C` [(I-20), (CH3 CH2)2 CHCO-Leu-Tyr-Arg-Lys-Met-Arg-Leu-Arg-Tyr-Pro-Val-NH2] ({Butanoyl(2-Et)}-LYRKMRLRYPV-NH2), the minimal inhibitory concentration (MIC) in assay [2] and in assay [4] was 83 µg/mL (≈ 52.1 µM) in each case. Besides, the inhibition at 630 µM (stock) in assay [5] (Concentration 630 μM (aqueous solution of test peptide)) was 74%. Besides, the “Cell proliferation inhibition rate (%)” value in assay [8] (Concentration 31 μM) is 44%.

(Values after patent US5580956A, “Phospholipase C-inhibiting peptides” (priority 1992, dated 1996).)
